From ChEMBL document CHEMBL3045401, “(Naphthalen-1-yloxy)-acetic acid benzylidene/(1-phenyl-ethylidene)-hydrazide derivatives: synthesis, antimicrobial evaluation, and QSAR studies” (Med Chem Res, 2012)
≈ marks a conversion by molar mass, not a printed value.

Columns and labels:
[1] = tested on: Human immunodeficiency virus 1; assay: Antiviral activity against Human immunodeficiency virus 1 IIIB infected human MT4 cells assessed as inhibition of virus-induced cytopathic effect after 4 days by MTT assay; type: functional, organism-based; conditions: MT4, 96 h
Staphylococcus aureus = assay: Antimicrobial activity against Staphylococcus aureus after 24 hr by serial dilution method; type: functional
Bacillus subtilis = assay: Antimicrobial activity against Bacillus subtilis after 24 hr by serial dilution method; type: functional
[2] = Cytotoxicity against HEL assessed as minimum concentration required to cause morphological changes; type: cell-based; conditions: human, HEL cells
Aspergillus niger = assay: Antimicrobial activity against Aspergillus niger after 7 days by serial dilution method; type: functional
Human betaherpesvirus 5 [3] = assay: Antiviral activity against Human herpesvirus 5 Davis infected human HEL cells assessed as reduction in the virus plaque formation; type: functional, organism-based; conditions: Human betaherpesvirus 5, Davis
Candida albicans = assay: Antimicrobial activity against Candida albicans after 2 days by serial dilution method; type: functional
Human betaherpesvirus 5 [4] = assay: Antiviral activity against Human herpesvirus 5 strain AD169 infected human HEL cells assessed as reduction in the virus plaque formation; type: functional, organism-based; conditions: Human betaherpesvirus 5, AD169, HEL
[5] = Cytotoxicity against Homo sapiens (human) MT4 cells after 4 days by MTT assay; type: cell-based
[6] = tested on: Human immunodeficiency virus 2; assay: Antiviral activity against Human immunodeficiency virus type 2 (ISOLATE ROD) infected human MT4 cells assessed as inhibition of virus-induced cytopathic effect after 4 days by MTT assay; type: functional, organism-based; conditions: Human immunodeficiency virus 2, ISOLATE ROD, MT4, 96 h
[7] = Octanol-water partition coefficient, log P of the compound; type: physicochemical
Escherichia coli = assay: Antimicrobial activity against Escherichia coli after 24 hr by serial dilution method; type: functional
[8] = Cytotoxicity against HEL; type: cell-based; conditions: human, HEL cells
Human alphaherpesvirus 3 [9] = assay: Antiviral activity against thymidine kinase-deficient Human herpesvirus 3 infected in HEL cells assessed as inhibition of viral plaque formation; type: functional, organism-based; conditions: Human alphaherpesvirus 3, HEL
Human alphaherpesvirus 3 [10] = assay: Antiviral activity against thymidine kinase-positive Human herpesvirus 3 infected in HEL cells assessed as inhibition of viral plaque formation; type: functional, organism-based; conditions: Human alphaherpesvirus 3, HEL

Compound | EC50 [1] [µg/mL] | -logMIC (Staphylococcus aureus) | -logMIC (Bacillus subtilis) | MCC [2] [µg/mL] | -logMIC (Aspergillus niger) | EC50 (Human betaherpesvirus 5 [3]) [µg/mL] | -logMIC (Candida albicans) | EC50 (Human betaherpesvirus 5 [4]) [µg/mL] | CC50 at 96 h [5] [µg/mL] | EC50 [6] [µg/mL] | logP [7] | -logMIC (Escherichia coli) | CC50 [8] [µg/mL] | EC50 (Human alphaherpesvirus 3 [9]) [µg/mL] | EC50 (Human alphaherpesvirus 3 [10]) [µg/mL]
O=C(COc1cccc2ccccc12)N/N=C/c1ccccc1O | > 5.19 | 1.71 | 1.11 | 20 | 1.11 | > 4 | 1.41 | > 4 | 5.19 (≈ 16.2 µM) | > 5.19 | 3.73 | 1.41 | 3.57 (≈ 11.1 µM) | > 0.8 | > 0.8
C/C(=N\NC(=O)COc1cccc2ccccc12)c1cccc([N+](=O)[O-])c1 | > 12.1 | 1.76 | 1.16 | 20 | 1.46 | > 4 | 1.76 | > 4 | 12.1 (≈ 33.2 µM) | > 12.1 | 3.37 | 1.46 | 10.5 (≈ 28.9 µM) | > 4 | > 4
CSc1ccc(/C=N/NC(=O)COc2cccc3ccccc23)cc1 | > 68.3 | 0.85 | 0.85 | ≥ 100 | 0.54 | > 20 | 1.45 | > 20 | 68.3 (≈ 195 µM) | > 68.3 | 4.11 | 0.85 | > 100 | > 20 | > 20
O=C(COc1cccc2ccccc12)N/N=C/C=C/c1ccccc1 | > 62.7 | 1.12 | 1.12 | 100 | 0.82 | > 20 | 1.72 | > 20 | 82.7 (≈ 250 µM) | > 62.7 | 4.43 | 1.12 | 100 (≈ 303 µM) | > 20 | > 20
O=C(COc1cccc2ccccc12)N/N=C/c1ccccc1 | > 96.6 | 0.78 | 0.78 | 100 | 0.78 | > 20 | 0.78 | > 20 | ≥ 96.6 | > 96.6 | 4.02 | 0.78 | 64.5 (≈ 212 µM) | > 20 | > 20
O=C(COc1cccc2ccccc12)N/N=C/c1cccc(Br)c1 | > 87.4 | 1.79 | 0.58 | 100 | 0.58 | > 20 | 0.58 | > 20 | 87.4 (≈ 228 µM) | > 87.4 | 4.81 | 0.58 | 48.6 (≈ 127 µM) | > 20 | > 20
Cc1ccc(/C=N/NC(=O)COc2cccc3ccccc23)cc1 | > 83.9 | 1.12 | 0.52 | 20 | 0.82 | > 4 | 0.52 | > 4 | 83.9 (≈ 263 µM) | > 83.9 | 4.49 | 0.52 | 80.1 (≈ 252 µM) | > 20 | > 20
C/C(=N\NC(=O)COc1cccc2ccccc12)c1ccc(Cl)cc1 | > 4.07 | 1.45 | 1.15 | ≥ 4 | 0.85 | 4 (≈ 11.3 µM) | 1.75 | > 0.8 | 4.07 (≈ 11.5 µM) | > 4.07 | 4.17 | 1.15 | 7.1 (≈ 20.1 µM) | 3.24 (≈ 9.18 µM) | 2.5 (≈ 7.09 µM)
C/C(=N\NC(=O)COc1cccc2ccccc12)c1ccc(Br)cc1 | > 77.6 | 0.6 | 0.9 | 20 | 0.6 | > 4 | 0.6 | > 4 | 77.6 (≈ 195 µM) | > 77.6 | 3.61 | 0.6 | 15.3 (≈ 38.5 µM) | > 4 | > 4
